One experiment deals with KOR. On the set-up: method as in PMID 14718611. As to conditions: [3H]bremazocine as radiolabeled ligand; cited from earlier work.
For another experiment, the target named is T1, human KOR (Homo sapiens, UniProt P41145).
T1 construct: expressed in transfected cells; host or cells: CHO cells expressing hKOR (membranes), according to the assay names of the earlier reading
The experiment is described as follows: biochemical. As to conditions: read-out: Emax ± SEM.

This is an account of results in publication PMC1805503 (Beilstein Journal of Organic Chemistry, 2007).

T1 sequence (P41145 whole entry): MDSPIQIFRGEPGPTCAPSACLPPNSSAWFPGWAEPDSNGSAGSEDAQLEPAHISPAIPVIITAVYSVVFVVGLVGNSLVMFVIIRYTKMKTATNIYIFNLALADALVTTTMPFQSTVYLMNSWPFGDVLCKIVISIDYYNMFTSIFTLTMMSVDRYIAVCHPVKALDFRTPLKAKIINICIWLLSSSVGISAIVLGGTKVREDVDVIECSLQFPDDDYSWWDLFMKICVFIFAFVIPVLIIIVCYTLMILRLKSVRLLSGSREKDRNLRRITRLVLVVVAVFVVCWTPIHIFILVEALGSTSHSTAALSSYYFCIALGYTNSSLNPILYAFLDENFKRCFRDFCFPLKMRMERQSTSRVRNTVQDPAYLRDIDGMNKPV

For the compound `COC(=O)[C@@H]1C[C@H](O)C(=O)[C@H]2[C@@]1(C)CC[C@H]1C(=O)O[C@H](c3ccoc3)C[C@]21C` [Compound 2a, salvinorin B], the “activity at the KOR (in words), early report” value in the experiment with KOR is “inactive”.
Consider `COC(=O)C1CC(O)C(=O)C2C1(C)CCC1C(=O)OC(c3ccoc3)CC12C` (stereo not drawn) [Compound 2b, 8-epi-salvinorin B], for which the Emax on human KOR came to 90 ± 2%.

The term Emax denotes the greatest response seen or fitted, relative to the assay's reference.
